This note sets out measurements from ChEMBL document CHEMBL1133951, “New anti-malarial flavonol glycoside from Hydrangeae Dulcis Folium” (2001).

Experiment [1] has as its system Plasmodium falciparum. Nature of the experiment: Antimalarial potency against Plasmodium falciparum at 0.5 ng/mL. Format: functional.
Experiment [2] has as its system KB 3-1. The experiment in a line: Cytotoxic activity against KB 3-1 cells at 5 ug/mL; Not detected. In kind it is functional, cell-based. The following applies: Homo sapiens.
The subject of experiment [3] is Plasmodium falciparum. The experiment in a line: Antimalarial potency against Plasmodium falciparum at 0.05 ng/mL. In kind it is functional.
For experiment [4], the system named is Plasmodium falciparum. The experiment in a line: Anti-malarial potency against Plasmodium falciparum at 5 ng/ml. Format: functional.
Experiment [5] concerns Plasmodium falciparum. The experiment in a line: Anti-malarial potency against Plasmodium falciparum at 0.1 ng/ml. In kind it is functional.
The test system of experiment [6] is KB 3-1. Nature of the experiment: Cytotoxic activity against KB 3-1 cells at 5 ug/m; Not detected. In kind it is functional, cell-based. To be noted: Homo sapiens.
The subject of experiment [7] is Plasmodium falciparum. The experiment in a line: Inhibitory ratio on proliferation of Plasmodium falciparum at 0.1 uM. Format: functional.

Each structure is given as a SMILES string.

For the molecule `CC(=O)OC[C@H]1O[C@@H](O[C@@H]2[C@@H](O)[C@@H](O)[C@H](Oc3c(-c4ccc(O)c(O)c4)oc4cc(O)cc(O)c4c3=O)O[C@H]2C)[C@H](O)[C@H](O)[C@H]1O`, the Activity in the experiment on Plasmodium falciparum [1] was 52.1%; in the experiment on Plasmodium falciparum [3] it was 27.4%; with Plasmodium falciparum [4] it was 65.4%; in the experiment with Plasmodium falciparum [5], 40.3%. The Cytotoxicity result with KB 3-1 [2] was “Not detected”.
For `C[C@@H]1O[C@@H](Oc2c(-c3ccc(O)c(O)c3)oc3cc(O)cc(O)c3c2=O)[C@H](O)[C@H](O)[C@H]1O` [QUERCITRIN], the Activity with Plasmodium falciparum [1] stood at 36%; in the experiment with Plasmodium falciparum [3], 34%; in the experiment with Plasmodium falciparum [4], 32.9%; with Plasmodium falciparum [5] it was 39.4%.
As to `C[C@@H]1O[C@@H](OC[C@H]2O[C@@H](Oc3c(-c4ccc(O)cc4)oc4cc(O)cc(O)c4c3=O)[C@H](O[C@H]3OC[C@H](O)[C@@H](O)[C@@H]3O)[C@@H](O)[C@H]2O)[C@H](O)[C@H](O)[C@H]1O`, the Activity in the experiment with Plasmodium falciparum [1] is 68.7%; in the experiment with Plasmodium falciparum [3] it was 37.6%; with Plasmodium falciparum [4] it was 58.9%; with Plasmodium falciparum [5] it was 54.2%. The Cytotoxicity entry with KB 3-1 [2] was “Not detected”.
`C[C@@H]1O[C@@H](Oc2c(-c3ccc(O)c(O)c3)oc3cc(O)cc(O)c3c2=O)[C@H](O)[C@H](O)[C@H]1O[C@@H]1O[C@H](CO)[C@H](O)[C@@H](O)[C@H]1O`: the Activity in the experiment with Plasmodium falciparum [1] was 43.4%; in the experiment on Plasmodium falciparum [3] it was 25%; with Plasmodium falciparum [4], 48.1%; in the experiment with Plasmodium falciparum [5], 32.8%.
For `C[C@@H]1O[C@@H](OC[C@H]2O[C@H](Oc3c(-c4ccc(O)cc4)oc4cc(O)cc(O)c4c3=O)[C@H](O)[C@H](O)[C@H]2O)[C@H](O)[C@H](O)[C@H]1O` the same measures were 60.1%, 30.5%, 50.9% and 49.1%.
In the case of `C[C@@H]1O[C@@H](OC[C@H]2O[C@H](Oc3c(-c4ccc(O)c(O)c4)oc4cc(O)cc(O)c4c3=O)[C@H](O)[C@H](O)[C@H]2O)[C@H](O)[C@H](O)[C@H]1O`, the Activity was 56% in the experiment on Plasmodium falciparum [1], 38.7% in the experiment with Plasmodium falciparum [3], 56.4% in the experiment with Plasmodium falciparum [4] and 51.6% with Plasmodium falciparum [5]. Besides, the Cytotoxicity entry in the experiment with KB 3-1 [2] is “Not detected”.
For the molecule `O=c1c(O[C@@H]2O[C@H](CO)[C@H](O)[C@@H](O)[C@H]2O)c(-c2ccc(O)c(O)c2)oc2cc(O)cc(O)c12`, the Activity in the experiment on Plasmodium falciparum [1] was 31.7%; in the experiment on Plasmodium falciparum [3], 31.1%; with Plasmodium falciparum [4], 36.8%; in the experiment with Plasmodium falciparum [5], 27.7%.
For the molecule `O=c1c(O[C@@H]2O[C@H](CO[C@@H]3OC[C@@H](O)[C@H](O)[C@H]3O)[C@H](O)[C@H](O)[C@H]2O)c(-c2ccc(O)cc2)oc2cc(O)cc(O)c12`, the Activity with Plasmodium falciparum [1] is 61.9%; in the experiment with Plasmodium falciparum [3], 22.4%; with Plasmodium falciparum [4] it was 56.2%; with Plasmodium falciparum [5] it was 43.1%. For the same molecule, in the experiment with KB 3-1 [6], the Cytotoxicity result was “Not detected”.
As for `COc1cc(-c2oc3cc(O)cc(O)c3c(=O)c2O[C@H]2O[C@H](CO[C@@H]3O[C@@H](C)[C@H](O)[C@@H](O)[C@H]3O)[C@H](O)[C@@H](O)[C@H]2O)ccc1O`, the Activity amounted to 44.5% in the experiment on Plasmodium falciparum [1], 10.8% with Plasmodium falciparum [3], 41.5% with Plasmodium falciparum [4] and 24.5% with Plasmodium falciparum [5].
As for `C=C[C@H]1CN2CC[C@H]1C[C@H]2[C@H](O)c1ccnc2ccc(OC)cc12` [QUININE], in the experiment with Plasmodium falciparum [7], the Inhibitory ratio is on record as 45.3.
